Results published in ChEMBL document CHEMBL5463727, “Data for DCP probe SGK3-PROTAC1” (2023).

Columns and labels:
[1] = target: Myosin light chain kinase, smooth muscle (Homo sapiens) (UniProt Q15746); experiment: % Activity remaining of SmMLCK in the Dundee kinase panel at 1.0 µM; conditions: Compound concentration 1.0 uM
[2] = target: Ephrin type-A receptor 4 (Homo sapiens) (UniProt P54764); experiment: % Activity remaining of EPH-A4 in the Dundee kinase panel at 1.0 µM; conditions: Compound concentration 1.0 uM
Ephrin type-A receptor 4 (Homo sapiens), sequence (P54764 whole entry): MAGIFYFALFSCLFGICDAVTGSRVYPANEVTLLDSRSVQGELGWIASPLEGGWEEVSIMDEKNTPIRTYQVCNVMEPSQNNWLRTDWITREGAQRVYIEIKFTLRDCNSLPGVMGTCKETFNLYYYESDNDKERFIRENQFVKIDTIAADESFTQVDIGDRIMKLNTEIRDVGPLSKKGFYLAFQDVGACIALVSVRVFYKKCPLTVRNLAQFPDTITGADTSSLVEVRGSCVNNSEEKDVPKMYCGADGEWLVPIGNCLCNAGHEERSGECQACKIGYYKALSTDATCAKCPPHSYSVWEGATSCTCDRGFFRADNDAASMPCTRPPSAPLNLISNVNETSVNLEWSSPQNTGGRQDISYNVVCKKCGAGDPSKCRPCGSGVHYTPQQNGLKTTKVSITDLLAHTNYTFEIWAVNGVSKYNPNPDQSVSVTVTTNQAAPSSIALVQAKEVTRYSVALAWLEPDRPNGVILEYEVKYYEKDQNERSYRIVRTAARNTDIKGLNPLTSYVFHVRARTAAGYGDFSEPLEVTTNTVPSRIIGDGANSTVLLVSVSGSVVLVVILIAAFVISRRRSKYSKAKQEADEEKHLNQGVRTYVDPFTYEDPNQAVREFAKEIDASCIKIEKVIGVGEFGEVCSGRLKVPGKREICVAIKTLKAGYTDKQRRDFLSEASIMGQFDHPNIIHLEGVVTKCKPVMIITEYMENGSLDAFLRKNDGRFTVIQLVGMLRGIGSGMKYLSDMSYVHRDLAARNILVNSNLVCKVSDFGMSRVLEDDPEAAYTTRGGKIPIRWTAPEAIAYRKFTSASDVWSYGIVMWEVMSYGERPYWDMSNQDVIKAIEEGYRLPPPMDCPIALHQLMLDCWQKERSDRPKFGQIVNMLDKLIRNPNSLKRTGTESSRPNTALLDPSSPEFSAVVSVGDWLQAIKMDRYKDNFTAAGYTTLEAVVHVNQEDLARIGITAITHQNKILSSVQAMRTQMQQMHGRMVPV

[3] = target: Protein-tyrosine kinase 6 (Homo sapiens) (UniProt Q13882); experiment: % Activity remaining of BRK in the Dundee kinase panel at 1.0 µM; conditions: Compound concentration 1.0 uM
Protein-tyrosine kinase 6 (Homo sapiens), sequence (Q13882 whole entry, looked up): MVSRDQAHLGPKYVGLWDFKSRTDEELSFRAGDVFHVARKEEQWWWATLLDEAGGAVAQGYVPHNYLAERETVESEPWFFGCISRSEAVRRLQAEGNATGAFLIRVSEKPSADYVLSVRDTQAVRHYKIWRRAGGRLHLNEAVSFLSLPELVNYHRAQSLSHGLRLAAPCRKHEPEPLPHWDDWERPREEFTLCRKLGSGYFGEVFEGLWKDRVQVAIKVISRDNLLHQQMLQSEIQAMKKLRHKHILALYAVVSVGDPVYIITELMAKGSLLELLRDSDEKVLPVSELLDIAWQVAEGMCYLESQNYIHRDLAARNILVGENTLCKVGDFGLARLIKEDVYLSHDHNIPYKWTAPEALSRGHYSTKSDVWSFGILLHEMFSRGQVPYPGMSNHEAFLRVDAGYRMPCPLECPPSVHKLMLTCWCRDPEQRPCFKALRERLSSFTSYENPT

[4] = target: Serine/threonine-protein kinase pim-2 (Homo sapiens) (UniProt Q9P1W9); experiment: % Activity remaining of PIM2 in the Dundee kinase panel at 1.0 µM; conditions: Compound concentration 1.0 uM
[5] = target: Serine/threonine-protein kinase PAK 2 (Homo sapiens) (UniProt Q13177); experiment: % Activity remaining of PAK2 in the Dundee kinase panel at 1.0 µM; conditions: Compound concentration 1.0 uM
[6] = target: RAC-beta serine/threonine-protein kinase (Homo sapiens) (UniProt P31751); experiment: % Activity remaining of PKB beta in the Dundee kinase panel at 1.0 µM; conditions: Compound concentration 1.0 uM
[7] = target: Ribosomal protein S6 kinase alpha-5 (Homo sapiens) (UniProt O75582); experiment: % Activity remaining of MSK1 in the Dundee kinase panel at 1.0 µM; conditions: Compound concentration 1.0 uM
[8] = target: Serine/threonine-protein kinase N2 (Homo sapiens) (UniProt Q16513); experiment: % Activity remaining of PRK2 in the Dundee kinase panel at 1.0 µM; conditions: Compound concentration 1.0 uM
[9] = target: Mitogen-activated protein kinase 12 (Homo sapiens) (UniProt P53778); experiment: % Activity remaining of p38 gamma MAPK in the Dundee kinase panel at 1.0 µM; conditions: Compound concentration 1.0 uM
[10] = target: Death-associated protein kinase 1 (Homo sapiens) (UniProt P53355); experiment: % Activity remaining of DAPK1 in the Dundee kinase panel at 1.0 µM; conditions: Compound concentration 1.0 uM
[11] = target: Mitogen-activated protein kinase kinase kinase 5 (Homo sapiens) (UniProt Q99683); experiment: % Activity remaining of ASK1 in the Dundee kinase panel at 1.0 µM; conditions: Compound concentration 1.0 uM
[12] = target: Ephrin type-B receptor 2 (Homo sapiens) (UniProt P29323); experiment: % Activity remaining of EPH-B2 in the Dundee kinase panel at 1.0 µM; conditions: Compound concentration 1.0 uM
Ephrin type-B receptor 2 (Homo sapiens), sequence (P29323 whole entry, looked up): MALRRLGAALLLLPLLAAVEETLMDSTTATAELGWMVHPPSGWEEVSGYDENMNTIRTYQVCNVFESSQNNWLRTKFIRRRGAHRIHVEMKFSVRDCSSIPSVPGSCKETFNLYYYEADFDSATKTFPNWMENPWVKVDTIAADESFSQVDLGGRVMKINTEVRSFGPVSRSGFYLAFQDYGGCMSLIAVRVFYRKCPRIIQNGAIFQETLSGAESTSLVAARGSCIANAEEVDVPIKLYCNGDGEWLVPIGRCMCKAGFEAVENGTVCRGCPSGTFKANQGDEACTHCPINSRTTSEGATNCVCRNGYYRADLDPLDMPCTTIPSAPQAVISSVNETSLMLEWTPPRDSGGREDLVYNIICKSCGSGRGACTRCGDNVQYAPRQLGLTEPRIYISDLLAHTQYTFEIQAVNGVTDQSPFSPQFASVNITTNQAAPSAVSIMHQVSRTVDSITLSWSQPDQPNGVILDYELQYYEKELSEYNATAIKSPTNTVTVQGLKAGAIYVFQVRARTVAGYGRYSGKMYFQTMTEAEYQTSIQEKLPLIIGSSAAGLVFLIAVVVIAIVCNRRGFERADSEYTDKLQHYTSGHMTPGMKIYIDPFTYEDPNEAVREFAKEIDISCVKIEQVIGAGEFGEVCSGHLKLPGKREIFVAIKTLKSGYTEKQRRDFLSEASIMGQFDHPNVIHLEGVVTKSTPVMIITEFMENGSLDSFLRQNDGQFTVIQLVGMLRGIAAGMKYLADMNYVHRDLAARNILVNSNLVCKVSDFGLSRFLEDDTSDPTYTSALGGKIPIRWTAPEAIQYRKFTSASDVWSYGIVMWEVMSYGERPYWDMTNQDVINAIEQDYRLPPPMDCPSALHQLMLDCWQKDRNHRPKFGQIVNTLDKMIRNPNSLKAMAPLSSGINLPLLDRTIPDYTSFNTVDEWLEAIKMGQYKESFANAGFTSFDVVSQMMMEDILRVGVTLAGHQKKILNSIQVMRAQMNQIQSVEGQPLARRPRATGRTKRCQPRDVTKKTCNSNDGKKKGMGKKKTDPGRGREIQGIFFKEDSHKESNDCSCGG

[13] = target: Serine/threonine-protein kinase ULK1 (Homo sapiens) (UniProt O75385); experiment: % Activity remaining of ULK1 in the Dundee kinase panel at 1.0 µM; conditions: Compound concentration 1.0 uM
[14] = target: Dual specificity mitogen-activated protein kinase kinase 2 (Homo sapiens) (UniProt P36507); experiment: % Activity remaining of MKK2 in the Dundee kinase panel at 1.0 µM; conditions: Compound concentration 1.0 uM
[15] = target: Serine/threonine-protein kinase MARK1 (Homo sapiens) (UniProt Q9P0L2); experiment: % Activity remaining of MARK1 in the Dundee kinase panel at 1.0 µM; conditions: Compound concentration 1.0 uM
[16] = target: Tyrosine-protein kinase ABL1 (Homo sapiens) (UniProt P00519); experiment: % Activity remaining of ABL in the Dundee kinase panel at 1.0 µM; conditions: Compound concentration 1.0 uM
[17] = target: Serine/threonine-protein kinase 26 (Homo sapiens) (UniProt Q9P289); experiment: % Activity remaining of MST4 in the Dundee kinase panel at 1.0 µM; conditions: Compound concentration 1.0 uM
[18] = target: MAP kinase-activated protein kinase 5 (Homo sapiens) (UniProt Q8IW41); experiment: % Activity remaining of PRAK in the Dundee kinase panel at 1.0 µM; conditions: Compound concentration 1.0 uM
[19] = target: Serine/threonine-protein kinase 24 (Homo sapiens) (UniProt Q9Y6E0); experiment: % Activity remaining of MST3 in the Dundee kinase panel at 1.0 µM; conditions: Compound concentration 1.0 uM
[20] = target: Serine/threonine-protein kinase BRSK1 (Homo sapiens) (UniProt Q8TDC3); experiment: % Activity remaining of BRSK1 in the Dundee kinase panel at 1.0 µM; conditions: Compound concentration 1.0 uM
[21] = target: MAP kinase-activated protein kinase 2 (Homo sapiens) (UniProt P49137); experiment: % Activity remaining of MAPKAP-K2 in the Dundee kinase panel at 1.0 µM; conditions: Compound concentration 1.0 uM
[22] = target: SRSF protein kinase 1 (Homo sapiens) (UniProt Q96SB4); experiment: % Activity remaining of SRPK1 in the Dundee kinase panel at 1.0 µM; conditions: Compound concentration 1.0 uM
[23] = target: Dual specificity protein kinase TTK (Homo sapiens) (UniProt P33981); experiment: % Activity remaining of TTK in the Dundee kinase panel at 1.0 µM; conditions: Compound concentration 1.0 uM
[24] = target: Tyrosine-protein kinase CSK (Homo sapiens) (UniProt P41240); experiment: % Activity remaining of CSK in the Dundee kinase panel at 1.0 µM; conditions: Compound concentration 1.0 uM
[25] = target: Homeodomain-interacting protein kinase 2 (Homo sapiens) (UniProt Q9H2X6); experiment: % Activity remaining of HIPK2 in the Dundee kinase panel at 1.0 µM; conditions: Compound concentration 1.0 uM
[26] = target: CDK9/cyclin T1 (Homo sapiens) (UniProt O60563+P50750); experiment: % Activity remaining of CDK9-Cyclin T1 in the Dundee kinase panel at 1.0 µM; format: protein-complex assay; conditions: Compound concentration 1.0 uM
[27] = target: Serine/threonine-protein kinase D1 (Homo sapiens) (UniProt Q15139); experiment: % Activity remaining of PKD1 in the Dundee kinase panel at 1.0 µM; conditions: Compound concentration 1.0 uM
[28] = target: Aurora kinase B (Homo sapiens) (UniProt Q96GD4); experiment: % Activity remaining of Aurora B in the Dundee kinase panel at 1.0 µM; conditions: Compound concentration 1.0 uM
[29] = target: Serine/threonine-protein kinase 3 (Homo sapiens) (UniProt Q13188); experiment: % Activity remaining of MST2 in the Dundee kinase panel at 1.0 µM; conditions: Compound concentration 1.0 uM
[30] = target: Tyrosine-protein kinase ZAP-70 (Homo sapiens) (UniProt P43403); experiment: % Activity remaining of ZAP70 in the Dundee kinase panel at 1.0 µM; conditions: Compound concentration 1.0 uM
Tyrosine-protein kinase ZAP-70 (Homo sapiens), sequence (P43403 whole entry): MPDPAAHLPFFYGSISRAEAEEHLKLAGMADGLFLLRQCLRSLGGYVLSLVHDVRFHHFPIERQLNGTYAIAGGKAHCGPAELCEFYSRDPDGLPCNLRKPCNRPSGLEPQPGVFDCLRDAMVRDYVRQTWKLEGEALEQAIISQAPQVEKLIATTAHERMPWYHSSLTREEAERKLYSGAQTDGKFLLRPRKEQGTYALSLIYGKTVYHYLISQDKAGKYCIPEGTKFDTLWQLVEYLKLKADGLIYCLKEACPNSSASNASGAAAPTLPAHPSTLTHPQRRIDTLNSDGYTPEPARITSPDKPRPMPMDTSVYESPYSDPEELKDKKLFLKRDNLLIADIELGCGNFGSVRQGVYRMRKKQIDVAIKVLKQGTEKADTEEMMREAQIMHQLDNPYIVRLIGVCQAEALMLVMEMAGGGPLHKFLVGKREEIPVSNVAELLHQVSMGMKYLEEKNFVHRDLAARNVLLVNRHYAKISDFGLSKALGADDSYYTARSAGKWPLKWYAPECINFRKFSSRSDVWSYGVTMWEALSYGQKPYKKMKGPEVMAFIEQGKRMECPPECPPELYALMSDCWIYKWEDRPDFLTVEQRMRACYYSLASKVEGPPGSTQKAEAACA

[31] = target: Serine/threonine-protein kinase Sgk3 (Homo sapiens) (UniProt Q96BR1); experiment: SGK3 degradation assay at 100 nM (48 h incubation, no effect on RPS6KB1, SGK1 and SGK2); format: functional; parameters: compound concentration 100 nM
[32] = target: Proto-oncogene tyrosine-protein kinase Src (Homo sapiens) (UniProt P12931); experiment: % Activity remaining of Src in the Dundee kinase panel at 1.0 µM; conditions: Compound concentration 1.0 uM
[33] = target: 5'-AMP-activated protein kinase catalytic subunit alpha-1 (Homo sapiens) (UniProt Q13131); experiment: % Activity remaining of AMPK (hum) in the Dundee kinase panel at 1.0 µM; conditions: Compound concentration 1.0 uM
5'-AMP-activated protein kinase catalytic subunit alpha-1 (Homo sapiens), sequence (Q13131 whole entry, looked up): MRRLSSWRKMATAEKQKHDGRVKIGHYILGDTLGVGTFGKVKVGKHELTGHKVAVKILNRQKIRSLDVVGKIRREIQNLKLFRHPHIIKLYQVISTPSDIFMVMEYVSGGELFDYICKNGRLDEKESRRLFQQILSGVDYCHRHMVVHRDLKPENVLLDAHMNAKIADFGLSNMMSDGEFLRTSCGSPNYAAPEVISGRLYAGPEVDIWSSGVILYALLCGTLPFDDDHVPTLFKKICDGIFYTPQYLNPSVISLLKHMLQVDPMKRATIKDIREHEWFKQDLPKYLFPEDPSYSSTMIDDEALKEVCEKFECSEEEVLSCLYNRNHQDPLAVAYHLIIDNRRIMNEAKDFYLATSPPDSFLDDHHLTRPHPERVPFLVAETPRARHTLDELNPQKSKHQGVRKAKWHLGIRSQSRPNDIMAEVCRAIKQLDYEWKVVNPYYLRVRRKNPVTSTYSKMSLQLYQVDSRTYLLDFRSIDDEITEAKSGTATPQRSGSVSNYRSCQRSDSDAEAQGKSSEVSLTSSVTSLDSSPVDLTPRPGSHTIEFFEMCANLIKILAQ

[34] = target: Eukaryotic elongation factor 2 kinase (Homo sapiens) (UniProt O00418); experiment: % Activity remaining of EF2K in the Dundee kinase panel at 1.0 µM; conditions: Compound concentration 1.0 uM
Eukaryotic elongation factor 2 kinase (Homo sapiens), sequence (O00418 whole entry): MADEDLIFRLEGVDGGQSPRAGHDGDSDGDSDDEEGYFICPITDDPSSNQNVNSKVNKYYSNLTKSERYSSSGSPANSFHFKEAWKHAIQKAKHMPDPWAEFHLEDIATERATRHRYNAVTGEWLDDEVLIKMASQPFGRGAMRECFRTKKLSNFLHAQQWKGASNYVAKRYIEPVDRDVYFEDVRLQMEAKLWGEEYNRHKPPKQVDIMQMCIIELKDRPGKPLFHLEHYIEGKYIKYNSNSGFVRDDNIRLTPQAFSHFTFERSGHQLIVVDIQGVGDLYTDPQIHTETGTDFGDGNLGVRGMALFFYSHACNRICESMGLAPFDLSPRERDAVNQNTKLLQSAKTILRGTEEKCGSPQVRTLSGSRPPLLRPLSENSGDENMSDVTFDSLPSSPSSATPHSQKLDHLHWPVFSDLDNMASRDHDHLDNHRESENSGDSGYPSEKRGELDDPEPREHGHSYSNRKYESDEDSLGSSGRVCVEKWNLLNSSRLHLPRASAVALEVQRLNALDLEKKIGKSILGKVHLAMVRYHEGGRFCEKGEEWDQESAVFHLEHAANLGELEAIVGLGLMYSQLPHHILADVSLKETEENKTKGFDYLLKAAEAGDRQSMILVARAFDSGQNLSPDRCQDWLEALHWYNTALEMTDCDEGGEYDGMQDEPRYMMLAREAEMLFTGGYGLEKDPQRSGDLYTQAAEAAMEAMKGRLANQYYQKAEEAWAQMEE

[35] = target: Platelet-derived growth factor receptor alpha (Homo sapiens) (UniProt P16234); experiment: % Activity remaining of PDGFRA in the Dundee kinase panel at 1.0 µM; conditions: Compound concentration 1.0 uM
[36] = target: Protein kinase C zeta type (Homo sapiens) (UniProt Q05513); experiment: % Activity remaining of PKC zeta in the Dundee kinase panel at 1.0 µM; conditions: Compound concentration 1.0 uM
[37] = target: Serine/threonine-protein kinase ULK2 (Homo sapiens) (UniProt Q8IYT8); experiment: % Activity remaining of ULK2 in the Dundee kinase panel at 1.0 µM; conditions: Compound concentration 1.0 uM
[38] = target: Insulin-like growth factor 1 receptor (Homo sapiens) (UniProt P08069); experiment: % Activity remaining of IGF-1R in the Dundee kinase panel at 1.0 µM; conditions: Compound concentration 1.0 uM
[39] = target: Dual specificity tyrosine-phosphorylation-regulated kinase 3 (Homo sapiens) (UniProt O43781); experiment: % Activity remaining of DYRK3 in the Dundee kinase panel at 1.0 µM; conditions: Compound concentration 1.0 uM
Dual specificity tyrosine-phosphorylation-regulated kinase 3 (Homo sapiens), sequence (O43781 whole entry): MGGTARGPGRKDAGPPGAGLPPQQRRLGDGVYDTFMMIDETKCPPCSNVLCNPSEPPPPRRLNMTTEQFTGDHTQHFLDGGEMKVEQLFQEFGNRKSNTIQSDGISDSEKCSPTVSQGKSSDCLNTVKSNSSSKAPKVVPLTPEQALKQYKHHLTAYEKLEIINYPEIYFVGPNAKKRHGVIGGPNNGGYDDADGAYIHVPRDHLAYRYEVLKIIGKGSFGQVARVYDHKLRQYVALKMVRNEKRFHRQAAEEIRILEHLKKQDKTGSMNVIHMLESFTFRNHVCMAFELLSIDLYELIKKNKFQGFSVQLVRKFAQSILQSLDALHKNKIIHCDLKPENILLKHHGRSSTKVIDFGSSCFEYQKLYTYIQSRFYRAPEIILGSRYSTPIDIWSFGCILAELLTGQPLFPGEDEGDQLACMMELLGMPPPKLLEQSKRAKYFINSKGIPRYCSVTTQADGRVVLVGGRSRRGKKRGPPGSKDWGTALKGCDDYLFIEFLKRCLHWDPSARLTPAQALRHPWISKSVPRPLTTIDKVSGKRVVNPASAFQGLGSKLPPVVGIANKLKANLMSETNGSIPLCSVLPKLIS

% Activity remaining [1] | % Activity remaining [2] | % Activity remaining [3] | % Activity remaining [4] | % Activity remaining [5] | % Activity remaining [6] | % Activity remaining [7] | % Activity remaining [8] | % Activity remaining [9] | % Activity remaining [11] | % Activity remaining [12] | % Activity remaining [13] | % Activity remaining [14] | % Activity remaining [15] | % Activity remaining [16] | % Activity remaining [17] | % Activity remaining [18] | % Activity remaining [19] | % Activity remaining [20] | Structure (SMILES) | % Activity remaining [10] | further results
52.9% | 106% | 86.8% | 98.2% | 116% | 98.7% | 49.6% | 105% | 107% | 113% | 93.9% | 116% | 114% | 99.4% | 111% | 106% | 115% | 102% | 108% | Cc1ccc(F)c(S(=O)(=O)Nc2ccc(-c3nc(OC[C@H]4CN(CCCCCCOCCOCCOCC(=O)N[C@H](C(=O)N5C[C@H](O)C[C@H]5C(=O)NCc5ccc(-c6scnc6C)cc5)C(C)(C)C)CCO4)c4cn[nH]c4n3)cc2)c1 | 100% | % Activity remaining [21]: 85.8%; % Activity remaining [22]: 95.8%; % Activity remaining [23]: 89.4%; % Activity remaining [24]: 118%; % Activity remaining [25]: 109%; % Activity remaining [26]: 103%; % Activity remaining [27]: 94%; % Activity remaining [28]: 92.5%; % Activity remaining [29]: 112%; % Activity remaining [30]: 75%; Degradation [31]: 65%; % Activity remaining [32]: 83.4%; % Activity remaining [33]: 105%; % Activity remaining [34]: 97.5%; % Activity remaining [35]: 101%; % Activity remaining [36]: 96.5%; % Activity remaining [37]: 103%; % Activity remaining [38]: 82.4%; % Activity remaining [39]: 102%
70.7% | 89.4% | 105% | 105% | 98.7% | 101% | 56.5% | 101% | 127% | 102% | 97.4% | 112% | 124% | 93% | 112% | 99% | 119% | 113% | 106% | Cc1ccc(F)c(S(=O)(=O)Nc2ccc(-c3nc(OC[C@H]4CN(CCCCCCOCCOCCOCC(=O)N[C@H](C(=O)N5C[C@@H](O)C[C@H]5C(=O)NCc5ccc(-c6scnc6C)cc5)C(C)(C)C)CCO4)c4cn[nH]c4n3)cc2)c1 | 108% | % Activity remaining [21]: 91.7%; % Activity remaining [22]: 104%; % Activity remaining [23]: 99.4%; % Activity remaining [24]: 113%; % Activity remaining [25]: 99.7%; % Activity remaining [26]: 105%; % Activity remaining [27]: 91.7%; % Activity remaining [28]: 94.7%; % Activity remaining [29]: 100%; % Activity remaining [30]: 74.7%; Degradation [31]: 0%; % Activity remaining [32]: 86.8%; % Activity remaining [33]: 108%; % Activity remaining [34]: 105%; % Activity remaining [35]: 94.8%; % Activity remaining [36]: 110%; % Activity remaining [37]: 117%; % Activity remaining [38]: 93.2%; % Activity remaining [39]: 104%
